Source: patent publication US20130061339A1, “METHOD OF DIAGNOSING TRICHOTILLOMANIA AND SIMILAR DISORDERS IN HUMANS AND RODENTS” (Purdue Research Foundation, priority 2011, published 2013)

What was measured:
[1] = system: trichotillomania patients; details: 50 trichotillomania patients, randomized double-blind placebo study [2]; cited from earlier work
[2] = standardized reductive capacity of urine after treatment; assay type: in vivo, mouse; details: 24 weeks, NAC 1 g/kg/day in feed, mice that were and were not barbers at the start; P=0.0244
Source text: (§1) Thirty-two female adult C57BL/6J mice (14 barbers and 18 non-barbers) were separated into cages with no barbers, and cages with at least one barber. Cages with no barbers were fed a diet to induce barbering, as per Dufour, et al.. Cages with barbers were fed a regular mouse diet. Half the cages in each group had their feed supplemented with NAC, at a dose of 1 g/kg/day per mouse. Urine was collected at baseline and 24 weeks, to measure: reductive capacity, which reflects the sum of unused antioxidants from the diet, and antioxidants produced to defend the body. The level of 8 hydroxy-2-deoxyguanosine (8-OH-dG) which measures DNA damage from ongoing oxidative stress was also measured at 24 weeks only. Urine concentration was controlled by measuring creatinine. Six animals provided urine too dilute for analysis. Barbering and patterns of hair loss were recorded every 2 weeks. Data were analyzed using generalized linear model (GLM) and logistic regression using JMP statistical software, available from SAS, Cary N.C.

[3] = system: barbering behavior in C57BL/6J mice; test: barbering in mice after 24 weeks of feed supplemented with NAC; assay type: in vivo, mouse; details: NAC 1 g/kg/day in feed, vs mice not treated with NAC, P=0.0152
Source text: as §1

## CC(=O)N[C@@H](CS)C(=O)O [NAC, N-acetylcysteine]
[1]
  patients in whom symptoms were reduced: 56%
[2]
  standardized reductive capacity of urine after treatment: only increases reductive capacity in healthy mice
[3]; mice that were barbers at the start, regular diet
  proportion of mice barbering after 24 weeks of treatment (curative effect): fewer mice treated with NAC were barbering
[3]; mice that were not barbers at the start, barbering-inducing diet
  proportion of mice barbering after 24 weeks of treatment (preventative effect): fewer mice treated with NAC were barbering
